In patent publication US20020013342A1, “Treatment of central nervous system disorders with selective estrogen receptor modulators” (priority 1997, published 2002):
Where a name gives a salt, the structure may show the parent alone.

Tested on: not given
Test: not given
Conditions: not given
With `COc1ccc(-c2sc3cc(OC)ccc3c2Oc2ccc(OCCN3CCCCC3)cc2)cc1` (as salt: oxalate) [Example 1, [6-methoxy-3-[4-[2-(1-piperidinyl)ethoxy]-phenoxy]-2-(4-methoxyphenyl)]benzo[b]thiophene Oxalate Salt] the melting point was 197 to 200 °C (dec.).
For `COc1ccc2c(Oc3ccc(OCCN4CCCCC4)cc3)c(-c3ccc(O)cc3)sc2c1` (as salt: hydrochloride) [Example 17, [6-methoxy-3-[4-[2-(1-piperidinyl)ethoxy]-phenoxy]-2-(4-hydroxyphenyl)]benzo[b]thiophene Hydrochloride], the melting point was 215 to 217 °C.
Compound `Oc1ccc(-c2sc3cc(O)ccc3c2Oc2ccc(OCCN3CCOCC3)cc2)cc1` (as salt: hydrochloride) [Example 13, [6-Hydroxy-3-[4-[2-(morpholino)ethoxy]-phenoxy]-2-(4-hydroxyphenyl)]benzo[b]thiophene Hydrochloride] has a melting point of 157 to 162 °C.
With `COc1ccc(-c2sc3cc(OC)ccc3c2Oc2ccc(OCCN3CCCCCC3)cc2)cc1` (as salt: hydrochloride) [Example 4, [6-Methoxy-3-[4-[2-(1-hexamethyleneimino)ethoxy]phenoxy]-2-(4-methoxyphenyl)]benzo[b]thiophene Hydrochloride] the melting point was 189 to 192 °C.
`Oc1ccc(-c2sc3cc(O)ccc3c2Oc2ccc(OCCN3CCCCCC3)cc2)cc1` [Example 11, [6-Hydroxy-3-[4-[2-(1-hexamethyleneimino)ethoxy]phenoxy]-2-(4-hydroxyphenyl)]benzo[b]thiophene] showed a melting point of 125 to 130 °C.
Compound `COc1ccc(-c2sc3cc(OC)ccc3c2Oc2ccc(OCCN3CCOCC3)cc2)cc1` (as salt: hydrochloride) [Example 6, [6-Methoxy-3-[4-[2-(morpholino)ethoxy]-phenoxy]-2-(4-methoxyphenyl)]benzo[b]thiophene Hydrochloride] has a melting point of 208 to 211 °C.
With `COc1ccc2c(Oc3ccc(OCCN4CCCCC4)cc3)c(-c3ccc(O)cc3)sc2c1` [Example 16, [6-methoxy-3-[4-[2-(1-piperidinyl)ethoxy]phenoxy]-2-(4-hydroxyphenyl)]benzo[b]thiophene] the melting point was 147 to 150 °C.
`CCN(CC)CCOc1ccc(Oc2c(-c3ccc(O)cc3)sc3cc(O)ccc23)cc1` [Example 12, [6-Hydroxy-3-[4-[2-(1-N,N-diethylamino)ethoxy]phenoxy]-2-(4-hydroxyphenyl)]benzo[b]thiophene] gave a melting point of 137 to 141 °C.
With `CCN(CC)CCOc1ccc(Oc2c(-c3ccc(OC)cc3)sc3cc(OC)ccc23)cc1` (as salt: hydrochloride) [Example 5, [6-Methoxy-3-[4-[2-(1-N,N-diethylamino)ethoxy]phenoxy]-2-(4-methoxyphenyl)]benzo[b]thiophene Hydrochloride] the melting point was 196 to 198 °C.
Compound `COc1ccc(-c2sc3cc(OC)ccc3c2Oc2ccc(OCCN3CCCC3)cc2)cc1` [Example 3, [6-Methoxy-3-[4-[2-(1-pyrolodinyl)ethoxy]-phenoxy]-2-(4-methoxyphenyl)]benzo[b]thiophene] has a melting point of 95 to 98 °C.
In the case of `Oc1ccc(-c2sc3cc(O)ccc3c2Oc2ccc(OCCN3CCCC3)cc2)cc1` [Example 10, [6-Hydroxy-3-[4-[2-(1-pyrolidinyl)ethoxy]-phenoxy]-2-(4-hydroxyphenyl)]benzo[b]thiophene], the melting point is reported as 99 to 113 °C.
With `COc1ccc(-c2sc3cc(OC)ccc3c2Oc2ccc(OCCN3CCCCC3)cc2)cc1` (as salt: hydrochloride) [Example 2, [6-methoxy-3-[4-[2-(1-piperidinyl)ethoxy]-phenoxy]-2-(4-methoxyphenyl)]benzo[b]thiophene hydrochloride salt] the melting point was 216 to 220 °C.

Tested on: not listed separately
Test: HPLC/UV analysis of liver and cerebral cortex homogenates for parent drug, primary metabolite and glucuronide conjugates
Format: in vivo, Female Fischer 344 rats
Conditions: cerebral cortex, eight hours after dosing
Method: A liver and cerebral cortex homogenate were analyzed by HPLC and UV detection at 315 nm to determine if the radioactivity in these tissues was actually due to the drug initially dosed, to the primary metabolite, 6-hydroxy-2-(4-hydroxyphenyl)-3-[4-(piperidinoethoxy)phenoxy]-benzo[b]thiophene, or there glucuronide conjugates. The cerebral cortex sample was obtained eight hours after dosing and the liver samples were collected at four and eight hours after dosing. The proteins in the homogenate were precipitated with acetonitrile and the supernate was evaporated to dryness. The residue was reconstituted in mobile phase and injected onto a SynChropak SCD-100 column with the initial mobile phase composed of […]. (v/v/v). The retention times of the peaks from the homogenate were compared with those obtained from authentic samples of 6-hydroxy-2-(4-methoxyphenyl)-3-[4-(piperidinoethoxy)phenoxy]benzo[b]thiophene and its metabolite, 6-hydroxy-2-(4-hydroxyphenyl)-3-[4-(piperidinoethoxy)phenoxy]benzo [b]-thiophene.
For `COc1ccc(-c2sc3cc(O)ccc3c2Oc2ccc(OCCN3CCCCC3)cc2)cc1` [Example 15, [6-Hydroxy-3-[4-[2-(1-piperidinyl)ethoxy]-phenoxy]-2-(4-methoxyphenyl)]benzo[b]thiophene Hydrochloride Salt], the “peaks corresponding to the glucuronide conjugates in the HPLC chromatogram of the cerebral cortex homogenate” value was “not observed”.
For `Oc1ccc(-c2sc3cc(O)ccc3c2Oc2ccc(OCCN3CCCCC3)cc2)cc1` [Example 7, [6-Hydroxy-3-[4-[2-(1-piperidinyl)ethoxy]-phenoxy]-2-(4-hydroxyphenyl)]benzo[b]thiophene], the “peaks corresponding to the glucuronide conjugates in the HPLC chromatogram of the cerebral cortex homogenate” value was “not observed”.

Same assay, conditions: liver samples collected at four and eight hours after dosing
In the case of `COc1ccc(-c2sc3cc(O)ccc3c2Oc2ccc(OCCN3CCCCC3)cc2)cc1` [Example 15, [6-Hydroxy-3-[4-[2-(1-piperidinyl)ethoxy]-phenoxy]-2-(4-methoxyphenyl)]benzo[b]thiophene Hydrochloride Salt], the “peaks in the HPLC chromatogram of the liver homogenates” value is reported as “peaks whose retention times corresponded to the parent compound and its glucuronide conjugate”.

Tested on: not listed separately
Test: Distribution of radioactivity among tissues after a single oral dose of 14C-labeled compound in the female F344 rat
Format: in vivo, Female Fischer 344 rats
Conditions: all tissues with the exception of the liver
Method: Female Fischer 344 rats (approximately twelve weeks old) were given a single oral gavage dose of 5 mg/kg (30 mCi/kg) of ^14C-labeled 6-hydroxy-2-(4-methoxyphenyl)-3-[4-(piperidinoethoxy)phenoxy]benzo[b]thiophene hydrochloride in 50% PEG 300/50% water. Blood and tissues were collected from three rats at each time point: just prior to dosing and at 2, 4, 8, and 24 hours after dosing. At each time point, the animals were sacrificed, blood samples were collected and the heparinized blood was centrifuged and the plasma obtained. Following collection of the bloood sample in each case, the animals were perfused with 0.9% saline solution and the brain, pituitary, femurs, ovaries, uterus and liver were surgically removed and placed in separate containers. […]
The radioactivity of each sample was determined by liquid scintillation spectrometry. Plasma was counted directly, while the other tissues were either homogenized, digested, or oxidized prior to liquid scintillation counting. […]
Samples were oxidized on a Packard Model307 Oxidizer and the resulting ^14CO2 trapped for liquid scintillation counting. The radioactivity in each tissue sample was converted to nanogram equivalents per gram of tissue (specific activity=16.3 dpm/ng). The 0-24 hour area under the curve (AUC0-24 hr) was calculated for each sample.
With `COc1ccc(-c2sc3cc(O)ccc3c2Oc2ccc(OCCN3CCCCC3)cc2)cc1` [Example 15, [6-Hydroxy-3-[4-[2-(1-piperidinyl)ethoxy]-phenoxy]-2-(4-methoxyphenyl)]benzo[b]thiophene Hydrochloride Salt] the “time after dosing at which peak levels of radioactive material were reached” value was 8 h.

Same assay, conditions: liver
With `COc1ccc(-c2sc3cc(O)ccc3c2Oc2ccc(OCCN3CCCCC3)cc2)cc1` [Example 15, [6-Hydroxy-3-[4-[2-(1-piperidinyl)ethoxy]-phenoxy]-2-(4-methoxyphenyl)]benzo[b]thiophene Hydrochloride Salt] the “time after dosing at which peak levels of radioactive material were reached” value was 4 h.

Tested on: gene expression in the hippocampus
Test: Differential mRNA display in hippocampi of ovariectomized rats after five weeks of daily treatment
Format: in vivo, female Sprague-Dawley rats
Conditions: 1 mg/kg daily subcutaneous, comparator estradiol benzoate 0.03 mg/kg
Method: A commonly employed model of estrogen depletion is the ovariectomized adult rat. An experiment was conducted in ovariectomized rats using differential mRNA display to determine the similarities and/or differences between a representative compound of the present invention, 6-hydroxy-2-(4-methoxyphenyl)-3-[4-(2-piperidinoethoxy)phenoxy]-benzo[b]thiophene, and estrogen at affecting gene expression in various brain regions. Specifically, female Sprague-Dawley rats, 6 weeks of age, were ovariectomized by the vendor. Following one week of acclimation to the laboratory facility, daily subcutaneous injections of estradiol benzoate (0.03 mg/kg) or 6-hydroxy-2-(4-methoxyphenyl)-3-[4-(2-piperidinoethoxy)phenoxy]-benzo[b]thiophene (1 mg/kg), or vehicle (control) were initiated.
After five weeks of daily treatment, animals were sacrificed and their brains removed and hippocampi collected by microdissection. The hippocampi were fast frozen in liquid nitrogen and stored at −70_C. Total RNA was prepared from pooled tissue from the appropriate treatment and control groups and reverse transcribed using a 3′ oligonucleotide primer which selected for specific mRNA (poly-A+) populations. Polymerase chain reactions (PCR) were carried out in a cocktail consisting of: random 5′ oligonucleotides (10 base-pairs in length; total of 150), reaction buffer, Taq polymerase, and a ^32PdTCP. […]
In the case of `COc1ccc(-c2sc3cc(O)ccc3c2Oc2ccc(OCCN3CCCCC3)cc2)cc1` [Example 14, [6-Hydroxy-3-[4-[2-(1-piperidinyl)ethoxy]-phenoxy]-2-(4-methoxyphenyl)]benzo[b]thiophene], the “mRNA display pattern in rat hippocampus compared with that observed for estrogen” value is reported as “parallel pattern of gene activation or inactivation”.
